# Assay results published in patent US20030082112A1, “Composition” (Unilever Home & Personal Care USA, Division of Conopco, Inc., priority 2001, published 2003).
# Assay: Storage stability of the alkyl hydroxybenzoate in the alkaline chalk oral care formulation
# Format: physicochemical
# Conditions: 37° C. for two months; 1.0 w/w % in fine ground natural chalk formulation of the Example
# Protocol: The following formulation is a composition according to the invention and is made by ordinary methods known to a skilled person.
# This octyl parahydroxy benzoic acid in this formulation was stable at 37° C. for two months.
compound,measurement,value
CCCCCCCCOC(=O)c1ccc(O)cc1 [octyl parahydroxy benzoic acid],stability in the formulation,stable
